Measured values as given in US10316057B2, “Tandem facial amphiphiles” (WISCONSIN ALUMNI RESEARCH FOUNDATION, priority 2011, dated 2019).
Several values for one entry are separate records, joined by “and”; a condition that tells them apart may be missing. Equal entries are not always repeated. Structures can show the parent of a compound that is named as a salt.

Assays:
[1] = Critical micelle concentration by solubilization of a hydrophobic fluorescent dye; type: physicochemical; conditions: mean ± SD, n = 3
Source text: The “Critical Micelle Concentration” (CMC) refers to the concentration of a detergent (e.g., an amphiphile as described herein) in an aqueous solution at which the detergent molecules self-assemble into micelles. Below the CMC, detergents are mostly monomeric; above the CMC, micelle concentration increases linearly with detergent concentration. The CMC is dependent upon many factors and is detergent-specific. The CMC of a detergent can be determined experimentally by measuring the solubilization of a water-insoluble dye or fluorophore while varying the concentration of detergent. A CMC may also be determined by measuring the diminution of the surface tension of an aqueous solution as a function of detergent concentration (CMCs determined by either method correlate with each other). The CMC is determined by extrapolating the plot of solubilization vs. concentration (or surface tension vs. concentration) in the two linear regions above and below the CMC. Where the two lines intersect is the CMC. The CMC can also be determined by the method of Nugebauer, J. M. (1990), Methods in Enzymology, 182:239-253.
TFA-0 forms a hydrogel at concentrations >0.4 wt %, and this compound was not studied further. The other three TFAs are soluble to 5-10 wt % in aqueous media. Critical micelle concentrations (CMC) were determined by monitoring solubilization of a hydrophobic fluorescent dye, […] (Chattopadhyay et al., Anal. Biochem. 1984, 139, 408-412), and the hydrodynamic radii (Rh) of the micelles were determined via dynamic light scattering (DLS). Table 1 compares the data for TFAs with those for DDM, a conventional detergent that is very widely used for MP applications; DDM and the TFAs share maltose as their hydrophilic moieties. CMC values of the three TFAs are smaller than that of DDM, whether CMC is measured in units of mM or wt %.
Analysis of these TFAs for their CMC values provided the data in Table 3.

[2] = tested on: leucine transporter (LeuT WT); assay: LeuT functionality assay ([3H]-Leu binding by scintillation proximity assay); set-up: species or system Aquifex aeolicus; conditions: room temperature
Source text: The wild type of bacterial leucine transporter (LeuT WT) was examined because the functional state of this membrane protein is readily assessed by using a scintillation proximity assay (SPA) (Quick et al., Proc. Natl. Acad. Sci. USA 2007, 104, 3603-3608) to monitor binding of radiolabelled leucine. LeuT was initially extracted with DDM and then diluted with amphiphile-containing solutions to generate final TFA concentrations of 0.04 wt % or 0.2 wt % (residual DDM=0.005 wt %). Control samples had 0.05 wt % or 0.2 wt % DDM (overall, the final concentrations were CMC+0.04 wt % or CMC+0.2 wt %).
The wild type of the leucine transporter (LeuT WT) from Aquifex aeolicus was expressed in Escherichia coli essentially as described by Deckert et al. (Nature 392, 353-358 (1998)). The pET16b-LeuT WT-8His plasmid was kindly provided by Dr. Eric Gouaux, Vollum Institute, Portland Oreg. LeuT WT was extracted from isolated bacterial membranes solubilized with 1% DDM, bound to Ni^2+-affinity Chelating Sepharose Fast Flow resin (GE Healthcare, USA), and eluted in buffer consisted of 20 mM Tris-HCl (pH 8.0), 1 mM NaCl, 199 mM KCl, 0.05% DDM and 300 mM imidazole. […] After incubation at room temperature, at the indicated time points, samples were centrifuged and the protein concentration was determined by absorbance measurements at 280 nm. Concomitantly, [^3H]-Leu binding was determined using scintillation proximity assay (SPA) (Quick and Javitch, Proc. Natl. Acad. Sci. USA 104, 3603-3608 (2007)), with the reaction mixture consisted of 5 μL from the respective samples, 33.3 nM [^3H]-Leu (PerkinElmer, USA) and copper chelate (His-Tag) YSi beads (GE Healthcare). […] Normalized results are expressed as mean±SEM (n=2), as illustrated in FIG. 11 (long-term solubility of LeuT WT incubated in the presence of TFA-1, TFA-3, and DDM at (a) CMC+0.04 wt % or (b) CMC+0.2 wt % at room temperature).

| SMILES | CMC [1] | CMC (wt %) [1] | maintaining LeuT WT function over 12 days ([2]; lower amphiphile concentration, CMC+0.04 wt %) | maintaining LeuT WT function over 12 days ([2]; higher amphiphile concentration, CMC+0.2 wt %) |
| --- | --- | --- | --- | --- |
| CCCCCCCCCCCCO[C@@H]1O[C@H](CO)[C@@H](O[C@H]2O[C@H](CO)[C@@H](O)[C@H](O)[C@H]2O)[C@H](O)[C@H]1O [DDM, dodecyl-β-D-maltoside, reference compound] | 170 µM | 0.009 wt % and 0.0087 wt % | slightly better than the TFAs | – |
| C[C@H](CCC(=O)N(C)CCCN(C)C(=O)CC[C@@H](C)[C@H]1CC[C@H]2[C@@H]3CC[C@@H]4C[C@H](O[C@@H]5O[C@H](CO)[C@@H](O[C@H]6O[C@H](CO)[C@@H](O)[C@H](O)[C@H]6O)[C@H](O)[C@H]5O)CC[C@]4(C)[C@H]3C[C@H](O[C@@H]3O[C@H](CO)[C@@H](O[C@H]4O[C@H](CO)[C@@H](O)[C@H](O)[C@H]4O)[C@H](O)[C@H]3O)[C@]12C)[C@H]1CC[C@H]2[C@@H]3CC[C@@H]4C[C@H](O[C@@H]5O[C@H](CO)[C@@H](O[C@H]6O[C@H](CO)[C@@H](O)[C@H](O)[C@H]6O)[C@H](O)[C@H]5O)CC[C@]4(C)[C@H]3C[C@H](O[C@@H]3O[C@H](CO)[C@@H](O[C@H]4O[C@H](CO)[C@@H](O)[C@H](O)[C@H]4O)[C@H](O)[C@H]3O)[C@]12C [TFA-1] | 13 ± 1.4 µM | 0.0028 ± 0.0003 wt % | – | matched DDM at the lower concentration |
